Patent publication US9180155B2, “Compositions from Nigella sativa” (Bio Nexus, Ltd, priority 2013, dated 2015)

Experiments:
[1] = tested on: prostate specific antigen (PSA) secretion by LNCaP prostate cells; experiment: PSA secretion from LNCaP prostate cells; assay type: cell-based, Human; settings: 5 to 100 μg/mL (Spent#1, NSSpent#2: 250 and 500)
Description: PSA was quantified from the cell culture supernatant fluid using the Quantikine Human KLK3/PSA Immunoassay kit (R&D Systems, Inc., Minneapolis, Minn.). All other materials used in this example were purchased from Sigma (St. Louis, Mo.) or otherwise noted and were of the highest purity commercially available. The N. sativa samples used in this study were those commercial-scale extracts described in Example 1. The LNCaP prostate cell line, which produces PSA, was used to study the effects of commercial-scale N. sativa scale extracts of Example 1 and pure TQ on the secretion of PSA. LNCaP cells were purchased from the American Type Culture Collection (ATCC, Manassas, Va.) and sub-cultured according to instructions supplied by ATCC. Prior to experiments, cells were cultured in DMEM containing 10% FBS-HI added 50 units penicillin/ml and 50 μg streptomycin/ml, and maintained in log phase prior to experimental setup. Cells were grown in a 5% CO2 humidified incubator at 37° C. Components of medium included: (1) 10% FBS/DMEM (Fetal Bovine Serum/Dulbecco's Modified Eagle's Medium) containing 4.5 g glucose/L; (2) 50 U/ml penicillin; and (3) 50 μg/ml streptomycin. Growth medium was made by adding 50 ml of heat inactivated FBS and 5 ml of penicillin/streptomycin to 500 ml DMEM. This medium was stored at 4° C. Before use, the medium was warmed to 37° C. in a water bath. LNCaP cells were seeded at an initial density of 6×10^4 cells/cm^2 in 96-well plates. For two days, the cells were allowed grow to reach confluence. On day three post seeding, cells were treated with TQ, NS8, NS9, NS10, Spent#1, and NSSpent#2 at the concentrations listed in FIGS. 5, 6 and 7. Twenty-four hours later, the supernatant media were sampled and assayed for PSA.

Caco-2 monolayers = experiment: t10-CLA-induced loss of TEER in Caco-2 monolayers; assay type: cell-based, human; settings: t10-CLA 50 μM control = 100; μg TQ equivalents/mL: Thymoquinone 5.0, NS8 0.11, NS9 0.99, NS10 0.012, NSSpent#2 0.0005; NSSpent#1 5 μg/mL; listed as TQ
Description: The protocol for growing and differentiation the human Caco-2 colon andenocarcinoma cells was a modification of Protocol 3 as described by Yamashita et al. [[…]., and Furuyama, Y. 2002) New and better protocols for a short-term Caco-2 cell culture system, J Pharm Sci 91, 669-679]. Caco-2 Human Colon Adenocarcinoma cells were obtained from ATCC (Rockville, Md.; catalog #HTB-37) and maintained in a growth media: DMEM (Dulbecco's Modified Eagles Medium 1×) containing L-glutamine, glucose; Cellgro catalog #35-010CV with the following additions: (1) Penicillin (5,000 IU/mL)/Streptomycin (5,000 μg/mL) Cellgro catalog #30-001C1, (2) 10% FBS-Fetal Bovine Serum, Characterized; Hyclone catalog #SH30071.3, and (3) 1% NEAA-Non Essential Amino Acids; Cellgro catalog #25-025-CI; cells were cultured at 37 C in a humidified air-5% CO2 atmosphere in T175 flasks. BIOCOAT^R HTS Caco-2 Assay System kits (Becton Dickinson, N.J.; catalog #354801) consisting of 24-well fibrillar collagen coated inserts and feeder trays were used in all experiments and plated as follows. Media was removed from the T175 flasks and cells were washed with 10 mLs PBS (phosphate buffered saline 1× without Ca^++, without Mg^++; Cellgro #25-053-CI). […]

[2] = tested on: IL-6 secretion in 3T3-L1 adipocytes; experiment: IL-6 secretion in t10-CLA-stimulated 3T3-L1 adipocytes; assay type: cell-based, murine; settings: t10-CLA 50 μM control = 100; μg TQ equivalents/mL: Thymoquinone 5.0, NS8 0.11, NS9 0.99, NS10 0.012, NSSpent#2 0.0005; NSSpent#1 5 μg/mL; listed as TQ
Procedure: The 3T3-L1 murine fibroblast model as used in Example 4 was used in this experiments. Test materials were added four hours prior to the addition of t10-CLA at a concentration of 50 μM. Following overnight incubation, the supernatant media were sampled for determination of IL-6 and adiponectin. The IL-6 secreted into the medium in response to […] stimulation was quantified using the Quantikine® Mouse IL-6 Immunoassay kit with no modifications (R&D Systems, Minneapolis, Minn.). […] All supernatant media samples were diluted 1:30 for quantification. Test materials and were assayed in duplicate, while solvent controls were replicated eight times. IL-6 and adiponectin secretion were represented relative to the IL-6 and adiponectin secretion of the t10-CLA only controls as the IL-6 and adiponectin index and differences among the means were analyzed by the student's t-test assuming a five percent probability of a type I error (Excel; Microsoft, Redmond, Wash.).

`CC1=CC(=O)C(C(C)C)=CC1=O` [Thymoquinone, thymoquinone] was tested, and the “Effect on PSA Secretion over 24 Hours” value ([1]; at 5 and 10 µg/mL) was “Decreased PSA at 5 and 10 μg/mL, dramatic”, the “Effect on PSA Secretion over 24 Hours” value ([1]; at 50 and 100 µg/mL) was “increase in PSA secretion at 50 and 100 μg/mL” and the “Effect on PSA Secretion over 24 Hours” value ([1]; listed as TQ) was “decreased PSA only at the two lowest doses tested”. The “Relative Loss of TEER” value (Caco-2 monolayers) was “inhibited loss of TEER” and the “IL-6 Index” value [2] was “inhibited IL-6 secretion”.
